Counter-ions that a name gives are not always drawn.
Assay: Solubility in water determined visually or by UV-spectrometry
Settings: 40° C. overnight, M = Li
Method: The solubility of the compounds of Formula (I) was determined visually or by UV-spectrometry. For each compound of Formula (I), three solutions were prepared: one solution at 30 wt %, one solution at 60 wt %, and one solution at 70 wt % containing a 1:1 molar ratio of the compound of Formula (I) with cross-linker Li-BVBSI. 500 ppm 40H-TEMPO was included in all three solutions to prevent premature polymerisation. The solutions were kept in a water bath of 40° C. overnight and centrifuged prior inspection. UV spectra were recorded in a Cary™ 100 UV-visible spectrophotometer from Agilent Technologies using a 1 mm path length quartz cuvette.

Row | SMILES | Solubility in water at 40° C. [wt %]
1 | C=Cc1ccc(S(=O)(=O)NS(=O)(=O)C(F)(F)F)cc1 [MM-Tf, Benzenesulphonamide, 4-ethenyl-N-[(trifluoromethyl)sulphonyl]-, lithium salt, reference compound] | >60
2 | C=Cc1ccc(S(=O)(=O)NS(C)(=O)=O)cc1 [MM-M, Benzenesulphonamide, 4-ethenyl-N-(methylsulphonyl)-, lithium salt] | >60
3 | C=Cc1ccc(S(=O)(=O)NS(N)(=O)=O)cc1 [MM-A, Benzenesulphonamide, 4-ethenyl-N-(aminosulphonyl)-, lithium salt] | >60
4 | C=Cc1ccc(S(=O)(=O)NS(=O)(=O)c2ccccc2)cc1 [MM-P, Benzenesulphonamide, 4-ethenyl-N-(phenylsulphonyl)-, lithium salt] | >60
5 | C=Cc1ccc(S(=O)(=O)[O-])cc1.[Li+] [LiSS, Styrene sulphonate, lithium salt, reference compound] | 40

— US12534583B2, “Compositions and polymer films” (Fujifilm Manufacturing Europe B.V., priority 2020, dated 2026)
